According to US20090156646A1, “PYRIDYLPHENOL COMPOUND AND USE THEREOF” (TAKEDA PHARMACEUTICAL COMPANY LIMITED, priority 2005, published 2009):
Structures can show the parent of a compound that is named as a salt.

With N#Cc1c(-c2cccc(NC(=O)[C@H](N)Cc3cnc[nH]3)c2)cc(-c2ccc(Cl)cc2O)nc1NC(=O)c1ccco1 (as salt: hydrochloride) [Example 253, N-{3-[6-(4-chloro-2-hydroxyphenyl)-3-cyano-2-(2-furoylamino)pyridin-4-yl]phenyl}-D-histidinamide dihydrochloride] as the compound, how does the melting point read?
The melting point was 200 to 206 °C.

For Cl.N#Cc1c(-c2cccc(NC(=O)CN3CCCCC3)c2)cc(-c2ccc(F)cc2O)nc1NC(=O)c1ccco1, which melting point is on record?
The melting point was 249 to 251 °C.

Which melting point does the source give for Cl.N#Cc1c(-c2ccc(F)c(N)c2)cc(-c2ccc(F)cc2O)nc1NC(=O)c1ccco1 here?
Its melting point is 284 to 285 °C.

Which melting point does the source give for N#Cc1c(-c2cccc(NC(=O)CCN)c2)cc(-c2ccccc2O)nc1NC(=O)c1ccccc1 (as salt: trifluoroacetate) [Example 31, N-[4-(3-(β-alanylamino)phenyl)-3-cyano-6-(2-hydroxyphenyl)pyridin-2-yl]benzamide trifluoroacetate] here?
The melting point was 225 to 226 °C.

Which melting point does the source give for Cl.N#Cc1c(-c2cccc(N3CCCCC3)c2)cc(-c2ccc(F)cc2O)nc1NC(=O)c1ccco1 here?
The melting point was 240 to 242 °C.

With CN(C)C[C@@H](C(=O)Nc1cccc(-c2cc(-c3ccc(F)cc3O)nc(NC(=O)c3ccco3)c2C#N)c1)N(C)C (as salt: hydrochloride) [Example 305, N-[3-cyano-4-(3-{[3-(dimethylamino)-N,N-dimethyl-L-alanyl]amino}phenyl)-6-(4-fluoro-2-hydroxyphenyl)pyridin-2-yl]-2-furamide dihydrochloride] as the compound, how does the melting point read?
The melting point was 195 to 200 °C.

For N#Cc1c(-c2ccccc2C(=O)NCCN)cc(-c2ccccc2O)nc1NC(=O)c1cccs1 (as salt: hydrochloride) [Example 24, N-[4-(2-{[(2-aminoethyl)amino]carbonyl}phenyl)-3-cyano-6-(2-hydroxyphenyl)pyridin-2-yl]thiophene-2-carboxamide dihydrochloride], which melting point is on record?
The melting point was 196 to 201 °C.

For Cl.N#Cc1c(-c2cccc(NC(=O)[C@@H]3CCCN3)c2)cc(-c2ccccc2O)nc1NC(=O)c1cccs1, which melting point is on record?
Its melting point is 210 to 218 °C.

Which melting point does the source give for Cl.N#Cc1c(-c2cccc(N3CCOCC3)c2)cc(-c2ccc(F)cc2O)nc1NC(=O)c1ccco1 here?
Its melting point is 244 to 246 °C.

Which melting point does the source give for N#Cc1c(-c2cccc(NC(=O)CCN)c2)cc(-c2cc(Cl)ccc2O)nc1NC(=O)c1cccs1 (as salt: trifluoroacetate) [Example 46, N-{4-[3-(β-alanylamino)phenyl]-6-(5-chloro-2-hydroxyphenyl)-3-cyanopyridin-2-yl}thiophene-2-carboxamide trifluoroacetate] here?
Its melting point is 197 to 204 °C.

Which melting point does the source give for N#Cc1c(-c2cccc(C(=O)NCCO)c2)cc(-c2ccccc2O)nc1NC(=O)c1cccs1 [Example 35, N-[3-cyano-4-(3-{[(2-hydroxyethyl)amino]carbonyl}phenyl)-6-(2-hydroxyphenyl)pyridin-2-yl]thiophene-2-carboxamide] here?
Its melting point is 218 to 219 °C.

Which melting point does the source give for CC(C)(C)OC(=O)NCCC(=O)Nc1cccc(-c2cc(-c3ccccc3O)nc(NC(=O)c3ccccc3)c2C#N)c1 [Example 30, tert-butyl[3-({3-[2-(benzoylamino)-3-cyano-6-(2-hydroxyphenyl)pyridin-4-yl]phenyl}amino)-3-oxopropyl]carbamate] here?
Its melting point is 220 to 221 °C.

For N#Cc1c(-c2cccc(N)c2)cc(-c2ccccc2O)nc1NC(=O)C1CCCCC1 [Example 29, N-[4-(3-aminophenyl)-3-cyano-6-(2-hydroxyphenyl)pyridin-2-yl]cyclohexanecarboxamide], which melting point is on record?
The melting point was 236 to 238 °C.

Which melting point does the source give for Cl.N#Cc1c(-c2cccc(C(=O)N3CCNCC3)c2)cc(-c2ccccc2O)nc1NC(=O)c1cccs1 here?
The melting point was 232 to 236 °C.

For CCCC(CC(=O)Nc1cccc(-c2cc(-c3ccc(F)cc3O)nc(NC(=O)c3ccco3)c2C#N)c1)N(CC)CC (stereo not drawn) (as salt: hydrochloride) [Example 317, N-[3-cyano-4-(3-{[3-(diethylamino)hexanoyl]amino}phenyl)-6-(4-fluoro-2-hydroxyphenyl)pyridin-2-yl]-2-furamide hydrochloride], which melting point is on record?
Its melting point is 195 to 197 °C.

For CC(C)(C)OC(=O)c1c(-c2cccc(NC(=O)CCN)c2)cc(-c2ccccc2O)nc1NC(=O)c1ccccc1 [Example 82, tert-butyl 4-[3-(β-alanylamino)phenyl]-2-(benzoylamino)-6-(2-hydroxyphenyl) nicotinate], which melting point is on record?
The melting point was 247 to 249 °C.

Which melting point does the source give for N#Cc1c(-c2cccc(NC(=O)CCN)c2)cc(-c2cc(Cl)ccc2O)nc1NC(=O)c1ccccc1 (as salt: trifluoroacetate) [Example 47, N-{4-[3-(β-alanylamino)phenyl]-6-(5-chloro-2-hydroxyphenyl)-3-cyanopyridin-2-yl}benzamide trifluoroacetate] here?
Its melting point is 205 to 210 °C.

With CN(C)CC(=O)Nc1cccc(-c2cc(-c3ccc(F)cc3O)nc(NC(=O)c3ccco3)c2CN(C)C)c1 (as salt: hydrochloride) [Example 300, N-[3-[(dimethylamino)methyl]-4-{3-[(N,N-dimethylglycyl)amino]phenyl}-6-(4-fluoro-2-hydroxyphenyl)pyridin-2-yl]-2-furamide dihydrochloride] as the compound, how does the melting point read?
The melting point was 186 to 194 °C.

For COc1ccccc1C(=O)Nc1nc(-c2ccc(Cl)cc2O)cc(-c2cccc(C(=O)NCCN)c2)c1C#N.Cl, which melting point is on record?
The melting point was 227 to 229 °C.

Which melting point does the source give for Nc1cccc(-c2cc(NC(=O)c3cccs3)nc(-c3ccccc3O)c2)c1 [Example 25, N-[4-(3-aminophenyl)-6-(2-hydroxyphenyl)pyridin-2-yl]thiophene-2-carboxamide] here?
Its melting point is 161 to 162 °C.

Which melting point does the source give for Cl.N#Cc1c(-c2cccc(C(=O)NCCCN)c2)cc(-c2ccccc2O)nc1NC(=O)c1cccs1 here?
The melting point was 192 to 198 °C.

For Cl.N#Cc1c(-c2cccc(C(=O)NC3CCCNC3)c2)cc(-c2ccccc2O)nc1NC(=O)c1cccs1 (stereo not drawn), which melting point is on record?
Its melting point is 232 to 233 °C.

Which melting point does the source give for COc1cccc(O)c1-c1cc(-c2cccc(NC(=O)CCN)c2)c(C#N)c(NC(=O)c2ccccc2)n1 (as salt: trifluoroacetate) [Example 52, N-{4-[3-(β-alanylamino)phenyl]-3-cyano-6-(2-hydroxy-6-methoxyphenyl)pyridin-2-yl}benzamide trifluoroacetate] here?
Its melting point is 160 to 167 °C.

For N#Cc1c(-c2ccc(N)cc2)cc(-c2ccccc2O)nc1NC(=O)c1cccs1 [Example 48, N-[4-(4-aminophenyl)-3-cyano-6-(2-hydroxyphenyl)pyridin-2-yl]thiophene-2-carboxamide], which melting point is on record?
Its melting point is 292 to 293 °C.

For CCN1CCN(Cc2cccc(-c3cc(-c4ccc(F)cc4O)nc(NC(=O)c4ccco4)c3C#N)c2)CC1 (as salt: hydrochloride) [Example 334, N-[3-cyano-4-{3-[(4-ethylpiperazin-1-yl)methyl]phenyl}-6-(4-fluoro-2-hydroxyphenyl)pyridin-2-yl]-2-furamide dihydrochloride], which melting point is on record?
Its melting point is 215 to 222 °C.

For CCOc1ccccc1C(=O)Nc1nc(-c2ccc(Cl)cc2O)cc(-c2cccc(NC(=O)CCN)c2)c1C#N.Cl, which melting point is on record?
The melting point was 240 to 244 °C.

Which melting point does the source give for N#Cc1c(-c2cccc(N)c2)cc(-c2ccccc2O)nc1NC(=O)c1ccsc1 [Example 33, N-[4-(3-aminophenyl)-3-cyano-6-(2-hydroxyphenyl)pyridin-2-yl]thiophene-3-carboxamide] here?
Its melting point is 257 to 260 °C.
